In patent US20030176436A1, “Novel heterocyclic compounds as selective bacterial DHFR inhibitors and their uses thereof” (priority 2001, published 2003):
≈ marks a conversion by molar mass, not a printed value. Like-named read-outs stand apart in the source and are kept apart here.

Key:
E. faecalis = assay: Microdilution antimicrobial susceptibility test (MIC); format: cell-based; details: Enterococcus faecalis; Table 2; 90% inhibition of growth
Method: (§1) Stock solutions of tested compounds were prepared in N,N-dimethylformamide (DMF) at a concentration of 5 mg/mL. Working solutions of the tested compounds were then prepared from the stock solutions, in Mueller-Hinton broth (MHB) with a starting concentration of 64 μg/mL.
(§2) Bacterial inocula were prepared from overnight culture (i.e., one fresh colony from agar plate in 5 ml MHB; H. influenzae was grown in MHB with the addition of yeast extract, haematin, and NAD), centrifuged 2×5 min/3000 rpm (for S. pneumoniae and H. influenzae, 2×10 min/3000 rpm), and dispensed in 5 ml of fresh MHB each time, such that the bacterial suspension is diluted to obtain 100 colony forming units (cfu) in a microplate well (100 μl total volume).
(§3) Microplate wells were filled with two-fold dilutions of test compound (50 μl), starting with 64 μg/ml. Wells were then filled with 50 μl of bacterial inoculum (final volume: 100 μl/well). The plates were incubated at 37° C. for 18-24 hours (S. pneumoniae was grown in a CO2-enriched atmosphere).

M. catarrhalis = assay: as above; format: cell-based; details: Moraxella catarrhalis; Table 2; 90% inhibition of growth
Method: as §1, §2, §3

S. aureus [1] = assay: as above; format: cell-based; details: Staphylococcus aureus
Method: as §1, §2, §3

P. aeruginosa = assay: as above; format: cell-based; details: Pseudomonas aeruginosa; Table 2; 90% inhibition of growth
Method: as §1, §2, §3

S. pneumoniae = assay: as above; format: cell-based; details: Streptococcus pneumoniae; Table 2; 90% inhibition of growth
Method: as §1, §2, §3

H. influenzae = assay: as above; format: cell-based; details: Haemophilus influenzae; Table 2; 90% inhibition of growth; read-out: MIC H. influenzae
Method: as §1, §2, §3

E. coli = assay: as above; format: cell-based; details: Escherichia coli; Table 2; 90% inhibition of growth
Method: as §1, §2, §3

human DHFR (hDHFR) = molecular target: T1, human DHFR (hDHFR) (Homo sapiens, UniProt P00374); assay: DHFR enzyme assay, Ki determination, human DHFR; format: biochemical; details: Table 3
T1 construct: result in the amplification of a 186 amino acid hDHFR coding region; made in house; host or cells: E. coli Top10
T1 sequence (P00374 1-187): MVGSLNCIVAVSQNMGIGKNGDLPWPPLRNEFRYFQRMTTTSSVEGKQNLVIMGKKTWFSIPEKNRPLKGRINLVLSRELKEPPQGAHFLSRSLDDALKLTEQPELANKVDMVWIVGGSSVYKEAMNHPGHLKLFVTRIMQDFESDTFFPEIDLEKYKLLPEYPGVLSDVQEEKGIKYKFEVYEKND
Method: The human DHFR cDNA was cloned by PCR from the Human Universal Quick-clone™ cDNA purchased from Clontech.
The PCR fragment was digested with restriction enzymes NdeI and HindIII, and then ligated into a derivative of the pKK223-3 expression vector (Amersham Pharmacia). The final expression vector (pFW96.2) was transformed into E. coli Top10 F40 and hDHFR protein was induced by the addition of 1 mM IPTG followed by incubation at 37° C. for 4 hrs. Recombinant human DHFR was purified based on a previously published procedure (2).
(§4) Dihydrofolic acid and NADPH were purchased from Sigma. Enzyme assays were adapted for microtitre format from a previously published procedure (2, 3). All assays were performed in a 250 μl volume in 96-well microtitre plates. Typical assays consisted of 20 nM DHFR (human or E. coli), 100 μM NADPH, and 50 μM dihydrofolic acid in 100 mM HEPES pH 8, 10 mM KCl, and 10 mM MgCl2. The assay was monitored spectrophotometrically for the conversion of NADPH to NADP+, which results in a decrease in absorbance at 340 nm.
(§5) Five microliters of inhibitor compound in DMSO was added to 120 μl of enzyme solution (40 nM DHFR and 200 μM NADPH). The reaction was initiated by the addition of 125 μl of 100 μM dihydrofolic acid. The final concentrations in the assay were 20 nM DHFR, 100 μM NADPH, 50 μM dihydrofolic acid, and a range of 500 μM to 20 nM inhibitor compound. The final DMSO concentration was 2% of the total volume. Reactions were monitored as described above.
V=(Vmax[S])/(Km(1+I/Ki)+[S]), where S=dihydrofolate, Km=Michaelis constant for dihydrofolate, I=inhibitor concentration.

bacterial DHFR (bDHFR) = molecular target: T2, bacterial DHFR (bDHFR) (Escherichia coli, UniProt P0ABQ4); assay: DHFR enzyme assay, Ki determination, bacterial DHFR; format: biochemical, E. coli
T2 construct: gift of Eric Brown, McMaster University
Method: Human and Bacterial DHFR: E. coli DHFR was kindly provided by Eric Brown of MacMaster University.
as §4
as §5, with “The” for “Five microliters of inhibitor compound in DMSO was added to 120 μl of enzyme solution (40 nM DHFR and 200 μM NADPH). The”

S. cerevisiae = assay: Microdilution susceptibility test (MIC), yeast as indicator of cytotoxicity; format: cell-based; details: Saccharomyces cerevisiae; Table 2; 90% inhibition of growth
Description: The following table of compounds of one aspect of the invention have potent antimicrobial activity against S. aureus bacteria and are anticipated to have physical-chemical properties similar to those of orally absorbed and bioavailable drugs and drug-like compounds. Antibacterial activity for a variety of bacterial species are shown (S. aureus, S. pneumoniae, E. faecalis, M. catarrhalis, and H. influenzae). The yeast cell (S. cerevisiae) in this panel of organisms is an indicator of potential cytotoxicity in mammalian cells.
as §1, §3

S. aureus [2] = assay: S. aureus mouse septicaemia model; format: in vivo; details: administered orally; mouse protection model
Method: Systemic models of infection are described in the literature. The following conditions can be used to assay the compounds in this application. Bacteria are grown in Mueller-Hinton agar at 37° C. during 24 h. For each experiment, a bacterial suspension is prepared by inoculating 4-5 bacterial colonies onto Mueller-Hinton broth (MHB) and by incubating at 37° C. for 24 hours to yield approximately 10^9 CFU/ml. BalbC female mice are supplied by Charles River (Deutschland). Animals are infected by a single administration of an LD100 dose of bacterial culture suspension (1×10^8 CFU/100 μl per animal) in the tail vein. A careful clinical examination is made several times a day, and obvious clinical symptoms and mortality are recorded. Animals survival is observed for a period of 6 days. Azithromycin is dissolved in 0.5% methocel in saline solution and administered orally. Test compounds are micronized with mortar and pestle and then dissolved in methocel saline solution with 3% of DMF. The first dose is administered 30 minutes after infection, with following doses every 12 hours for 3 days.
In vivo Efficacy Testing—S. aureus Mouse Septicaemia Model.
Several compounds were tested in a S. aureus mouse protection models for efficacy. Two compounds, 25 and 62, protected 40% of treated animals from the lethal infection when administered orally.

[3] = Table 2, 90% inhibition of growth, read-out: MIC S. aureus
[4] = second part of table, read-out: bDHFR

Structure (SMILES)	MIC (E. faecalis) [µg/mL]	MIC (M. catarrhalis) [µg/mL]	MIC (S. aureus [1]; [3]) [µg/mL]	MIC (P. aeruginosa) [µg/mL]	MIC (S. pneumoniae) [µg/mL]	MIC (H. influenzae) [µg/mL]	MIC (E. coli) [µg/mL]	Ki (human DHFR (hDHFR)) [nM]	Ki (bacterial DHFR (bDHFR); Table 3, read-out: bDHFR Ki) [µM]	MIC (S. cerevisiae) [µg/mL]	MIC (S. aureus [1]; MIC, average, read-out: S. aureus (μg/ml) avg) [µg/mL]	treated animals protected from the lethal infection (S. aureus [2]) [%]	Ki (bacterial DHFR (bDHFR); average, read-out: bDHFR Ki/(μM) avg) [µM]	Ki (bacterial DHFR (bDHFR); [4]) [µM]
Nc1nc(N)c2nc(CNc3ccccc3)cnc2n1 [Compound 6]	2 to 8 (≈ 7.48 to 29.9 µM)	2 to 8 (≈ 7.48 to 29.9 µM)	2 to 8 (≈ 7.48 to 29.9 µM)	> 64	2 to 8 (≈ 7.48 to 29.9 µM)	2 to 8 (≈ 7.48 to 29.9 µM)	> 64	> 5000	1 to 5	> 64	–	–	–	–
CC(c1csc2ccccc12)N(C)c1ncc2c(N)nc(N)nc2n1 (stereo not shown) [Compound 25]	–	–	–	–	–	–	–	–	–	–	0.25 (≈ 0.711 µM)	40	0.004	< 0.004
Nc1nc(N)c2nc(CNc3cccc([N+](=O)[O-])c3)cnc2n1 [Compound 7]	< 2	< 2	< 2	> 64	< 2	< 2	> 64	> 5000	0.1 to 0.499	> 64	–	–	–	–
CN(Cc1cnc2nc(N)nc(N)c2n1)c1ccc(C(=O)Nc2ccc(O)cc2)cc1 [Compound 1]	16 to 64 (≈ 38.4 to 154 µM)	2 to 8 (≈ 4.8 to 19.2 µM)	16 to 64 (≈ 38.4 to 154 µM)	> 64	< 2	2 to 8 (≈ 4.8 to 19.2 µM)	> 64	500 to 999	< 0.1	> 64	–	–	–	–
CN(Cc1cnc2nc(N)nc(N)c2n1)c1ccc(C(=O)NCc2ccccn2)cc1 [Compound 3]	2 to 8 (≈ 4.81 to 19.3 µM)	2 to 8 (≈ 4.81 to 19.3 µM)	2 to 8 (≈ 4.81 to 19.3 µM)	> 64	2 to 8 (≈ 4.81 to 19.3 µM)	2 to 8 (≈ 4.81 to 19.3 µM)	> 64	1000 to 5000	< 0.1	> 64	–	–	–	–
Nc1nc(N)c2nc(CNc3ccc4nc(S)sc4c3)cnc2n1 [Compound 10]	< 2	< 2	2 to 8 (≈ 5.61 to 22.4 µM)	> 64	2 to 8 (≈ 5.61 to 22.4 µM)	16 to 64 (≈ 44.9 to 180 µM)	> 64	> 5000	0.1 to 0.499	16 to 64 (≈ 44.9 to 180 µM)	–	–	–	–
Cc1ccc(C(C)N(C)c2ncc3c(N)nc(N)nc3n2)c2ccccc12 (stereo not shown) [Compound 62]	–	–	–	–	–	–	–	–	–	–	–	40	–	0.802
CN(Cc1cnc2nc(N)nc(N)c2n1)c1ccc(C(=O)NCc2ccncc2)cc1 [Compound 5]	2 to 8 (≈ 4.81 to 19.3 µM)	2 to 8 (≈ 4.81 to 19.3 µM)	16 to 64 (≈ 38.5 to 154 µM)	> 64	2 to 8 (≈ 4.81 to 19.3 µM)	2 to 8 (≈ 4.81 to 19.3 µM)	> 64	500 to 999	< 0.1	> 64	–	–	–	–
Nc1nc(N)c2nc(CNc3cccc(OCc4ccccc4)c3)cnc2n1 [Compound 16]	< 2	< 2	< 2	> 64	< 2	> 64	> 64	> 5000	< 0.1	> 64	–	–	–	–
